The source of these data is ChEMBL document CHEMBL1201862, “PubChem BioAssay data set” (2004).

Some test systems named below: NCI-H522; NCI-H460; SK-OV-3; T47D; SW-620; UACC-62; CCRF-CEM; CAKI-1; 786-0; SF-268; KM12; HT-29; OVCAR-4; A549; ACHN; Malme-3M; M14; IGROV-1; SF-295; NCI/ADR-RES.
Assay in all cases: inhibition of tumour cell growth, NCI panel, 48 h

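Interpolation was linear, between the two tested concentrations surrounding the appropriate level; five concentrations were tested over 48 hours in 96-well plates. Abbreviation: GI50, concentration required for 50% inhibition of growth.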 The source made the active and inactive calls. Cut-off read from the data, not from the text of the source: active = GI50 up to about 1.1 µM and inactive = higher.

For the compound `Cc1cc(N(C)C)c2ccccc2[n+]1CCCCCCCCCC[n+]1c(C)cc(N(C)C)c2ccccc21.[O-][Cl+3]([O-])([O-])[O-].[O-][Cl+3]([O-])([O-])[O-]`, the GI50 with NCI-H522 is 6.1 µM (inactive); with NCI-H460, 0.348 µM (active); with SK-OV-3 it was 0.735 µM (active); in the test on T47D it was 0.428 µM (active); in the test with SW-620, 1.92 µM (inactive); in the test on UACC-62, 0.989 µM (active). In addition, the GI50 with CCRF-CEM was 0.577 µM (active); with CAKI-1, 7.5 µM (inactive); in the test with 786-0, 2.59 µM (inactive); in the test on SF-268, 0.731 µM (active); with KM12, 0.282 µM (active); with HT-29, 0.429 µM (active). In addition, the GI50 is 1.63 µM (inactive) with OVCAR-4; 0.587 µM (active) with A549; 1.48 µM (inactive) with ACHN; 11 µM (inactive) in the test with Malme-3M; 2.33 µM (inactive) with M14; 6.05 µM (inactive) with IGROV-1. Besides, the results for the GI50 with SF-295 and in the test with NCI/ADR-RES were 1.47 µM (inactive) and 13.7 µM (inactive), respectively.

On to `NC(Cc1cc(Br)c(O)c(Br)c1)C(=O)O` (stereo not given), for which the GI50 in the test on NCI-H522, in the test with NCI-H460, in the test with SK-OV-3, with T47D, with SW-620 and in the test with UACC-62 was > 100 µM (inactive) in each case. Also, the GI50 in the test on CCRF-CEM, with CAKI-1, in the test with 786-0, in the test on SF-268, in the test on KM12 and with HT-29 was > 100 µM (inactive) in each case. For the same compound, the GI50 with OVCAR-4, with A549, in the test on ACHN, in the test on Malme-3M, in the test on M14 and with IGROV-1 was > 100 µM (inactive) throughout. In addition, the GI50 in the test with SF-295 and in the test with NCI/ADR-RES was > 100 µM (inactive) each time.

Turning to `O=c1[nH]c2cc([N+](=O)[O-])c(Nc3c4ccccc4nc4ccccc34)c([N+](=O)[O-])c2[nH]1`, the GI50 is 1.46 µM (inactive) with NCI-H522; 2.36 µM (inactive) in the test with NCI-H460; 4.04 µM (inactive) in the test on SK-OV-3; 2.49 µM (inactive) in the test with T47D; 2.31 µM (inactive) in the test on SW-620; 1.6 µM (inactive) in the test on UACC-62. Moreover, the GI50 in the test with CCRF-CEM was 4.42 µM (inactive); in the test with CAKI-1, 2.19 µM (inactive); in the test on 786-0 it was 2.39 µM (inactive); in the test on SF-268, 3.15 µM (inactive); in the test with KM12, 2.26 µM (inactive); in the test with HT-29, 1.98 µM (inactive). The GI50 with OVCAR-4 was 3.07 µM (inactive); in the test on A549, 2.69 µM (inactive); in the test on ACHN it was 1.98 µM (inactive); in the test with Malme-3M, 1.77 µM (inactive); with M14, 2.12 µM (inactive); in the test on IGROV-1, 0.238 µM (active). Further, the GI50 was 2.65 µM (inactive) with SF-295 and 2.41 µM (inactive) in the test on NCI/ADR-RES.

As to `O=[N+]([O-])c1cccc2nc3ccccc3c(NCCCCCNc3c4ccccc4nc4cccc([N+](=O)[O-])c34)c12`, the GI50 in the test on NCI-H522 was 0.0859 µM (active); in the test with NCI-H460 it was 0.0296 µM (active); with SK-OV-3, 0.19 µM (active); with T47D, 0.179 µM (active); in the test on SW-620, 0.0158 µM (active); in the test on UACC-62, 0.153 µM (active). In addition, the GI50 with CCRF-CEM is 0.0518 µM (active); in the test on CAKI-1 it was 0.0476 µM (active); in the test on 786-0, 0.0157 µM (active); with SF-268, 0.0313 µM (active); in the test on KM12, 0.0461 µM (active); with HT-29 it was 0.0195 µM (active). Further, the GI50 in the test on OVCAR-4 was 0.153 µM (active); with A549 it was 0.0366 µM (active); with ACHN, 0.0162 µM (active); in the test on Malme-3M, 0.129 µM (active); in the test on M14, 0.0607 µM (active); with IGROV-1 it was 0.202 µM (active). Moreover, the figures for the GI50 with SF-295 and in the test with NCI/ADR-RES were 0.137 µM (active) and 0.168 µM (active), respectively.

On to `Cn1c(=S)c2nc(SCCN3CCCC3)[nH]c2n(C)c1=O`, for which the GI50 with NCI-H522, in the test with NCI-H460, in the test on SK-OV-3, in the test on T47D, in the test with SW-620 and in the test with UACC-62 was > 100 µM (inactive) throughout. For the same compound, the GI50 in the test on CCRF-CEM, with CAKI-1, in the test with 786-0, in the test on SF-268, in the test on KM12 and in the test on HT-29 was > 100 µM (inactive) in each case. Besides, the GI50 in the test on OVCAR-4, in the test on A549, in the test with ACHN, with Malme-3M, in the test on M14 and in the test on IGROV-1 was > 100 µM (inactive) each time. The GI50 with SF-295 and with NCI/ADR-RES was > 100 µM (inactive) in each case.

Consider `O=S(=O)(c1ccc(-c2nnc(-c3ccc(F)cc3)o2)cc1)c1ccc(-c2nnc(-c3ccc(F)cc3)o2)cc1`, for which the GI50 is > 100 µM (inactive) with NCI-H522; > 100 µM (inactive) with NCI-H460; 30.4 µM (inactive) in the test on SK-OV-3; > 100 µM (inactive) in the test with T47D; > 100 µM (inactive) with SW-620; > 100 µM (inactive) in the test on UACC-62. Besides, the GI50 in the test with CCRF-CEM is > 100 µM (inactive); in the test on CAKI-1, > 100 µM (inactive); with 786-0, 26.8 µM (inactive); in the test on SF-268 it was > 100 µM (inactive); in the test with KM12 it was > 100 µM (inactive); in the test with HT-29 it was > 100 µM (inactive). Besides, the GI50 in the test on OVCAR-4 was > 100 µM (inactive); in the test with A549, > 100 µM (inactive); with ACHN, 14.7 µM (inactive); with Malme-3M, > 100 µM (inactive); in the test with M14, > 100 µM (inactive); with IGROV-1 it was > 100 µM (inactive). The values for the GI50 with SF-295 and in the test with NCI/ADR-RES were 55.3 µM (inactive) and > 100 µM (inactive), respectively.

For the compound `CCc1n[nH]c(=O)n1N1C(=O)CCC1=O`, the GI50 with NCI-H522, with NCI-H460, in the test on SK-OV-3, in the test with T47D, with SW-620 and in the test with UACC-62 was > 100 µM (inactive) each time. In addition, the GI50 in the test with CCRF-CEM, with CAKI-1, with 786-0, in the test with SF-268, with KM12 and in the test with HT-29 was > 100 µM (inactive) throughout. For the same compound, the GI50 in the test on OVCAR-4, in the test with A549, in the test with ACHN, in the test with Malme-3M, in the test with M14 and with IGROV-1 was > 100 µM (inactive) in each case. In addition, the GI50 with SF-295 and in the test on NCI/ADR-RES was > 100 µM (inactive) in each case.

`COC(=O)C1(C(=O)OC)CC2=C(S(=O)(=O)c3ccccc3)C[C@H](S(=O)(=O)c3ccccc3)[C@H]2C1`: the GI50 with NCI-H522 was 33 µM (inactive); in the test with NCI-H460, 39.6 µM (inactive); in the test with SK-OV-3, > 100 µM (inactive); with T47D, 30.3 µM (inactive); in the test with SW-620 it was > 100 µM (inactive); with UACC-62, 23.3 µM (inactive). Also, the GI50 was > 100 µM (inactive) in the test on CCRF-CEM; > 100 µM (inactive) in the test on CAKI-1; > 100 µM (inactive) in the test with 786-0; > 100 µM (inactive) in the test on SF-268; 91.8 µM (inactive) in the test on KM12; > 100 µM (inactive) in the test on HT-29. Also, the GI50 was > 100 µM (inactive) in the test with OVCAR-4; > 100 µM (inactive) with A549; > 100 µM (inactive) with ACHN; 80.2 µM (inactive) in the test on Malme-3M; > 100 µM (inactive) in the test with M14; 19.9 µM (inactive) in the test with IGROV-1. The GI50 in the test with SF-295 and in the test with NCI/ADR-RES was > 100 µM (inactive) in each case.

For the compound `C(=N\NC1=NCCN1)/c1ccc(-c2cn3cc(/C=N/NC4=NCCN4)ccc3n2)cc1`, the GI50 was 10.9 µM (inactive) in the test with NCI-H522; 3.76 µM (inactive) with NCI-H460; > 100 µM (inactive) in the test on SK-OV-3; > 100 µM (inactive) in the test with T47D; > 28.2 µM (inactive) with SW-620; 40.6 µM (inactive) with UACC-62. The GI50 with CCRF-CEM is 2.74 µM (inactive); with CAKI-1 it was 22 µM (inactive); in the test on 786-0, 19 µM (inactive); in the test with SF-268, 9.79 µM (inactive); in the test on KM12 it was > 44 µM (inactive); with HT-29, 11.9 µM (inactive). Also, the GI50 in the test with OVCAR-4 is 31 µM (inactive); in the test with A549, 10.2 µM (inactive); with ACHN, 34.6 µM (inactive); in the test with Malme-3M, 2.82 µM (inactive); with M14, > 32.7 µM (inactive); with IGROV-1 it was 15 µM (inactive). Besides, the GI50 with SF-295 was > 44.8 µM (inactive); in the test with NCI/ADR-RES, > 66.2 µM (inactive).

On to `CN1CCC23c4c5ccc(Oc6nnnn6-c6ccccc6)c4OC2c2[nH]c4ccccc4c2CC3(O)C1C5` (stereo not given), for which the GI50 in the test with NCI-H522 is 2 µM (inactive); with NCI-H460, 1.85 µM (inactive); in the test with SK-OV-3 it was 9.66 µM (inactive); in the test with T47D it was 6.71 µM (inactive); in the test on SW-620 it was 2.44 µM (inactive); with UACC-62, 1.8 µM (inactive). Also, the GI50 with CCRF-CEM is 2.08 µM (inactive); with CAKI-1 it was 2.16 µM (inactive); with 786-0 it was 1.77 µM (inactive); in the test with SF-268, 6.89 µM (inactive); in the test with KM12, 2.82 µM (inactive); in the test on HT-29, 2.38 µM (inactive). Moreover, the GI50 was 2.54 µM (inactive) in the test on OVCAR-4; 3.96 µM (inactive) with A549; 1.74 µM (inactive) in the test with ACHN; 1.67 µM (inactive) in the test with Malme-3M; 1.85 µM (inactive) with M14; 8.83 µM (inactive) in the test with IGROV-1. Moreover, the GI50 in the test on SF-295 is 3.95 µM (inactive); in the test on NCI/ADR-RES, 5.37 µM (inactive).
